Results taken from US8937091B2 (Japan Science and Technology Agency, priority 2009, dated 2015).

Key:
[1] = system: IICR (IP3 induced calcium release) in CHO cells; test: Assay of IICR (IP3 induced calcium release)-inhibiting action; type: cell-based, Chinese hamster; settings: Cricetulus griseus, CHO, CHO cells, 10 μM ATP, read-out: IICR level (percentage of inhibition); for inhibition at 10 µM: test compound 10 μmol; for inhibition at 30 µM: test compound 30 μmol; for inhibition at 100 µM: test compound 100 μmol
How it was run: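 CHO cell medium replaced with calcium-containing BSS; compound added 1 min later, then 10 μM ATP after a further 2 min. Percent inhibition of the ATP-evoked rise in intracellular calcium determined at each compound concentration.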

[2] = system: SOCE (store operated calcium entry) in CHO cells; test: Assay of SOCE (store operated calcium entry)-inhibiting action; type: cell-based, Chinese hamster; settings: Cricetulus griseus, CHO, CHO cells, thapsigargin, read-out: SOCE level (percentage of inhibition); for inhibition at 10 µM: test compound 10 μmol; for inhibition at 30 µM: test compound 30 μmol; for inhibition at 100 µM: test compound 100 μmol
How it was run: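 CHO cells in calcium-free BSS received compound, then 1 μM thapsigargin 2 min later to deplete stores; after 9 min, 2 mM calcium chloride (final) added. Percent inhibition of the rise in intracellular calcium determined at various compound concentrations.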

SMILES | inhibition at 10 µM [1] [%] | inhibition at 30 µM [1] [%] | inhibition at 100 µM [1] [%] | inhibition at 10 µM [2] [%] | inhibition at 30 µM [2] [%] | inhibition at 100 µM [2] [%]
Cc1cc(C(=O)CCN(Cc2ccccc2)C(C)C)c(C)o1 [Example 221, 2-(N-benzylisopropyl)aminoethyl-3-(2,5-dimethylfuryl)ketone] | 0 | 0 | 0 | 0 | 0 | 0
CC(C)N(CCC(=O)c1ccsc1)Cc1ccccc1 [Example 222, 2-(N-isopropylbenzyl)aminoethyl-3-thiophenylketone] | 0 | 30 | 80 | 0 | 0 | 10
O=C(CCNCCc1ccccc1)c1ccsc1 [Example 223, 2-(N-phenethyl)aminoethyl-3-thiophenylketone] | 0 | 0 | 0 | 0 | 10 | 20
CC(C)N(CCC(=O)n1ccnc1)Cc1ccccc1 [Example 224, 2-(N-isopropylbenzyl)aminoethyl-1-imidazolylketone] | 20 | 20 | 0 | 0 | 0 | 20
Cc1cc(C(=O)CCN(Cc2ccccc2)C(C)C)oc1C [Example 225, 2-(N-isopropylbenzyl)aminoethyl-4,5-dimethyl-2-furylketone] | 20 | 30 | 90 | 10 | 30 | 70
CCN(CCO)CCC(=O)c1cc(C)c(C)o1 [Example 226, 2-(N-2-hydroxyethylethyl)aminoethyl-4,5-dimethyl-2-furylketone] | 0 | 0 | 50 | 0 | 0 | 0
Cc1cc(C(=O)CCN(CCO)Cc2ccccc2)oc1C [Example 227, 2-(N-2-hydroxyethylbenzyl)aminoethyl-4,5-dimethyl-2-furylketone] | 20 | 0 | 20 | 0 | 0 | 0
CCN(CCO)CCC(=O)c1cc(C)sc1C [Example 228, 2-(N-2-hydroxyethylethyl)aminoethyl-2,5-dimethyl-3-thiophenylketone] | 20 | 0 | 20 | 0 | 0 | 20
Cc1cc(C(=O)CCN(CCO)CCO)c(C)s1 [Example 229, 2-(N,N-bis-2-hydroxyethyl)aminoethyl-2,5-dimethyl-3-thiophenylketone] | 0 | 0 | 0 | 0 | 0 | 0
Cc1cc(C(=O)CCN(CCO)C(C)C)c(C)s1 [Example 230, 2-(N-2-hydroxyethylisopropyl)aminoethyl-2,5-dimethyl-3-thiophenylketone] | 0 | 0 | 20 | 0 | 0 | 0
CC(C)(C)N(CCC(=O)c1cccnc1)Cc1ccccc1 [Example 231, 2-(N-benzyl-t-butyl)aminoethyl-3-pyridylketone] | 20 | 90 | 100 | 0 | 0 | 0
CC(C)(C)N(CCO)CCC(=O)c1cccnc1 [Example 232, 2-(N-t-butyl-2-hydroxyethyl)aminoethyl-3-pyridylketone] | 0 | 10 | 10 | 0 | 0 | 0
CN(CCC(=O)c1ccco1)Cc1ccccc1 [Example 233, 2-(N-benzylmethyl)aminoethyl-2-furylketone] | 30 | 70 | 80 | 0 | 0 | 10
CCCCN(CCO)CCC(=O)c1ccco1 [Example 234, 2-(N-2-hydroxyethylbutyl)aminoethyl-2-furylketone] | 0 | 70 | 80 | 0 | 0 | 10
CN(CCO)CCC(=O)c1ccco1 [Example 235, 2-(N-2-hydroxyethylmethyl)aminoethyl-2-furylketone] | 0 | 90 | 80 | 0 | 0 | 0
CN(CCC(=O)c1ccsc1)Cc1ccccc1 [Example 236, 2-(N-benzylmethyl)aminoethyl-3-thiophenylketone] | 10 | 10 | 80 | 0 | 0 | 20
CC(C)(C)N(CCC(=O)c1ccsc1)Cc1ccccc1 [Example 238, 2-(N-benzyl-t-butyl)aminoethyl-3-thiophenylketone] | 10 | 0 | 0 | 0 | 0 | 0
CCN(CCC(=O)c1ccc(C)o1)Cc1ccccc1 [Example 239, 2-(N-benzylethyl)aminoethyl-5-methyl-2-furylketone] | 0 | 50 | 80 | 0 | 0 | 10
Cc1ccc(C(=O)CCN(CCO)C(C)(C)C)o1 [Example 240, 2-(N-2-hydroxyethyl-t-butyl)aminoethyl-5-methyl-2-furylketone] | 10 | 30 | 50 | 0 | 0 | 0
Cc1ccc(C(=O)CCN(C)Cc2ccccc2)o1 [Example 241, 2-(N-benzylmethyl)aminoethyl-5-methyl-2-furylketone] | 0 | 0 | 70 | 0 | 0 | 10
CCN(CCC(=O)c1ccccn1)Cc1ccccc1 [Example 242, 2-(N-benzylethyl)aminoethyl-2-pyridylketone] | 30 | 80 | 90 | 0 | 0 | 0
O=C(CCN(CCO)CCO)c1ccccn1 [Example 243, 2-(N-bis-2-hydroxyethyl)aminoethyl-2-pyridylketone] | 0 | 0 | 50 | 0 | 0 | 0
CC(C)(C)N(CCO)CCC(=O)c1ccccn1 [Example 244, 2-(N-t-butyl-2-hydroxyethyl)aminoethyl-2-pyridylketone] | 0 | 0 | 0 | 0 | 0 | 0
O=C(CCN(CCO)Cc1ccccc1)c1cccs1 [Example 245, 2-(N-benzyl-2-hydroxyethyl)aminoethyl-2-thiophenylketone] | 0 | 0 | 0 | 0 | 0 | 0
CC(C)(C)N(CCO)CCC(=O)c1cccs1 [Example 246, 2-(N-t-butyl-2-hydroxyethyl)aminoethyl-2-thiophenylketone] | 10 | 0 | 0 | 0 | 0 | 0
CCCCN(CCO)CCC(=O)c1cccs1 [Example 247, 2-(N-butyl-2-hydroxyethyl)aminoethyl-2-thiophenylketone] | 10 | 0 | 0 | 0 | 0 | 0
CN(CCC(=O)c1cccnc1)Cc1ccccc1 [Example 248, 2-(N-benzylmethyl)aminoethyl-3-pyridylketone] | 0 | 10 | 80 | 0 | 0 | 0
O=C(CCN(CCO)CCO)c1ccncc1 [Example 249, 2-(N-bis-2-hydroxyethyl)aminoethyl-4-pyridylketone] | 0 | 60 | 80 | 0 | 0 | 20
